Test results from US20240287082A1, “NEW BENZODIAZEPINE DERIVATIVES AS GABA A GAMMA1 PAM” (Hoffmann-La Roche Inc., priority 2021, published 2024).
Where two headings read alike, the source gives them in different places.

Assays:
[1] = target: h-GABA-A α2β2γ1 (Homo sapiens (Human), UniProt P47869+Q8N1C3); test: Two-electrode voltage clamp electrophysiology in Xenopus oocytes expressing GABAA receptors, modulation of GABA EC20 current; assay type: cell-based; conditions: for Efficacy (GABA) %: % modulation of GABA EC20 = 100*(Fold increase−1), compound at 30-fold Ki α2β2γ1; for Fold increase h-GABA-A α2β2γ1 oocyte @ 30-fold Ki: Xenopus oocytes, GABA EC20, test compound at approx. 30-fold its Ki α2β2γ1
Protocol: Xenopus laevis oocytes at maturation stages V-VI were used for the expression of cloned mRNA encoding GABAA receptor subunits. Oocytes ready for RNA micro-injection were bought from Ecocyte, Castrop-Rauxel, Germany and stored in modified Barth's medium (composition in mM: NaCl 88, KCl 1, NaHCO3 2.4, HEPES 10, MgSO4 0.82, CaNO3 0.33, CaCl2 0.33, pH=7.5) at 20° C. until the experiment.
Oocytes were plated in 96-well plates for microinjection using the Roboinject automated instrument (MultiChannelSystems, Reutlingen, Germany). Approximately 50 nL of an aqueous solution containing the RNA transcripts for the subunits of the desired GABAA receptor subtype was injected into each oocyte. […] Oocytes were kept in modified Barth's medium (composition in mM: NaCl 88, KCl 1, NaHCO3 […], HEPES 10, MgSO4 0.82, CaNO3 0.33, CaCl2 0.33, pH=7.5) at 20° C. until the experiment.
Electrophysiological experiments were performed using the Roboocyte instrument (MultiChannelSystems, Reutlingen, Germany) on days 3 to 5 after the micro-injection of mRNA. During the experiment the oocytes were constantly superfused by a solution containing (in mM) NaCl 90, KCl 1, HEPES 5, MgCl2 1, CaCl2 1 (pH 7.4). Oocytes were impaled by two glass microelectrodes (resistance: 0.5-0.8 MΩ) which were filled with a solution containing KCl 1M+K-acetate 1.5 M and voltage-clamped to −80 mV. The recordings were performed at room temperature using the Roboocyte two-electrode voltage clamp system (Multichannelsystem). After an initial equilibration period of 1.5 min GABA was added for 1.5 min at a concentration evoking approximately 20% of a maximal current response (EC20). After another rest interval of 2.5 min GABA was again added evoking a response of similar amplitude and shape. […] Current traces were recorded at a digitization rate of 10 Hz during and shortly before and after the GABA application.
Each compound and concentration was tested on at least 3 oocytes. Different oocytes were used for different compound concentrations.
For the analysis, the digitized current traces of the first and second GABA response were superimposed and, if necessary, rescaled to equal maximal amplitudes. The ratio between the two responses during the time interval of test compound application was calculated point by point. The extremum of the resulting “ratio trace” was taken as the efficacy (“Fold increase”) of the compound expressed as “% modulation of GABA EC20” (100*(Fold increase−1)).

[2] = target: human GABAA α1β3γ2 receptor (Homo sapiens (Human), UniProt P14867+P18507); test: Radioligand binding assay, competition for [3H]Flumazenil, γ2-containing GABAA subtype α1β3γ2
Protocol: The affinity of compounds at GABAA γ2 subunit-containing receptors was measured by competition for [^3H]Flumazenil (81.1 Ci/mmol; Roche) binding to HEK293F cells expressing human (transiently transfected) receptors of composition α1β3γ2.
Harvested pellets from HEK293F cells expressing the different GABAA γ2 receptor subtypes were resuspended in Mannitol Buffer pH 7.2-7.4 and processed as described above for the cells expressing the GABAA γ1 subunit-containing receptors.
Assays were incubated to equilibrium for 1 hour at 4° C. and harvested onto GF/C uni-filters (Packard) by filtration using a Packard harvester and washing with ice-cold wash buffer (50 mM Tris; pH 7.5). After anhydrousing, filter-retained radioactivity was detected by liquid scintillation counting. Ki values were calculated using Excel-Fit (Microsoft) and are the means of two determinations.

[3] = target: human GABAA α2β2γ1 receptor (Homo sapiens (Human), UniProt P47869+Q8N1C3); test: Radioligand binding assay, competition for [3H]RO7239181, γ1-containing GABAA subtype α2β2γ1; conditions: for γ2/γ1 Selectivity Ratio: Ki α1β3γ2 (nM)/Ki α2β2γ1 (nM); for LogSel: Log[Ki α1β3γ2 (nM)/Ki α2β2γ1 (nM)]
Protocol: (§1) The affinity of compounds at GABAA γ1 subunit-containing receptors was measured by competition for [^3H]RO7239181 (67.3 Ci/mmol; Roche) binding to membranes from HEK293F cells (ThermoFisher R^79007) expressing human (transiently transfected) receptors of composition α5β2γ1, α2β2γ1, α1β2γ1.
(§2) Harvested pellets from HEK293F cells expressing the different GABAA receptor subtypes were resuspended in Mannitol Buffer pH 7.2-7.4 (Mannitol 0.29M, Triethylamine 10 mM, Acetic acid 10 mM, EDTA 1 mM plus protease inhibitors (20 tablets Complete, Roche Diagnostics Cat. No. 05 056 489 001 per liter)), washed two times and then resuspended at 1:10 to 1:15 dilution in the same buffer. Cell disruption was performed by stirring the suspension in a Parr vessel #4637 at 435 psi for 15 minutes, and then the suspensions were centrifuged at 1000×g for 15 minutes at 4° C. (Beckman Avanti J-HC: rotor JS-4.2). The supernatant (S1) was transferred in a 21 Schott flask and the pellet (P1) was resuspended with Mannitol Buffer up to 175 ml. The resuspended pellet was transferred into a 250 ml Corning centrifugal beaker and centrifuged at 1500×g for 10 minutes at 4° C. (Beckman Avanti J-HC: rotor JS-4.2). The supernatant (S1) was then transferred in the 21 Schott flask and the pellet was discarded. The supernatants (S1) were centrifuged in 500 ml Beckman polypropylene centrifugal beaker at 15 000×g for 30 minutes at 4° C. (Beckman Avanti J-20 XP: rotor JLA-10.500). The pellet (P2) was resuspended with Mannitol Buffer 1:1 and frozen at −80° C. The supernatant (S2) was centrifuged in 100 ml Beckman polypropylene centrifugal tubes at 48000×g for 50 minutes at 4° C. (Beckman Avanti J-20 XP: rotor JA-18). The supernatant (S3) was discarded and the pellet (P3) was resuspended with 1:1 Mannitol Buffer. The P2 and P3 protein concentration was determined with the BIORAD Standard assay method with bovine serum albumin as standard and measured on the NANO-Drop 1000. The membrane suspension was aliquots (500 μl per tube) and stored at −80° C. until required.
(§3) Membrane homogenates were resuspended and polytronised (Polytron PT1200E Kinematica AG) in Potassium Phosphate 10 mM, KCl 100 mM binding buffer at pH 7.4 to a final assay concentration determined with a previous experiment.
(§4) Assays were incubated to equilibrium for 1 hour at 4° C. and then, membranes were filtered onto unifilter (96-well white microplate with bonded GF/C filters preincubated 20-50 minutes in 0.3% Polyethylenimine) with a Filtermate 196 harvester (Packard BioScience) and washed 4 times with cold Potassium Phosphate 10 mM pH 7.4, KCl 100 mM binding buffer. After anhydrousing, filter-retained radioactivity was detected by liquid scintillation counting. Ki values were calculated using Excel-Fit (Microsoft) and are the means of two determinations.

[4] = target: human GABAA α5β2γ1 receptor (Homo sapiens (Human), UniProt P31644+Q8N1C3); test: Radioligand binding assay, competition for [3H]RO7239181, γ1-containing GABAA subtype α5β2γ1
Protocol: as §1, with “α1β2γ1. For better protein expression of the α2 subunit-containing receptors, the 28 amino acid long signal peptide (Met1 to Ala28)of the human GABAA α2 subunit was substituted by the 31 amino acid long signal peptide (Met1 to Ser31) of human GABAA α5 subunit.” for “α1β2γ1.”
as §2, §3
as §4, with “Radioligand binding assays were carried out in a volume of 200 μL (96-well plates) which contained 100 μL of cell membranes, [3H]RO7239181 at a concentration of 1.5 nM (α5β2γ1) or 20-30 nM (α1β2γ1, α2β2γ1) and the test compound in the range of [0.3-1000]×10^−9 M. Nonspecific binding was defined by 10×10^−6 (α5β2γ1) and 30×10^−6 M RO7239181 and typically represented less than 5% (α5β2γ1) and less than 20% (α1β2γ1, α2β2γ1) of the total binding. Assays” for “Assays”

[5] = target: human GABAA α1β2γ1 receptor (Homo sapiens (Human), UniProt P14867+Q8N1C3); test: Radioligand binding assay, competition for [3H]RO7239181, γ1-containing GABAA subtype α1β2γ1; conditions: membranes of HEK293F cells, [3H]RO7239181 20-30 nM, mean of two determinations
Protocol: as §1, §2, §3, §4

[6] = read-out: Ki h-GABAA α2β2γ1, Table 2, membranes of HEK293F cells, [3H]RO7239181

Structure (SMILES)	Efficacy (GABA) % [1]	Fold increase h-GABA-A α2β2γ1 oocyte @ 30-fold Ki [1]	Ki [2]	Ki [3]	γ2/γ1 Selectivity Ratio [3]	LogSel [3]	Ki [3, 6]	Ki [4]	Ki [5]	Ki ([2]; HEK293F cell membranes, [3H]Flumazenil 1 nM, mean of two determinations, read-out: Ki h-GABAA α1β3γ2)	Ki ([3]; Table 2, membranes of HEK293F cells, [3H]RO7239181, read-out: Ki h-GABAA α2β2γ1)	Ki ([3]; membranes of HEK293F cells, [3H]RO7239181 20-30 nM, mean of two determinations, read-out: Ki h-GABAA α2β2γ1)	Ki ([4]; membranes of HEK293F cells, [3H]RO7239181 1.5 nM, mean of two determinations, read-out: Ki h-GABAA α5β2γ1)
Cc1ccc2c(c1Cl)C(c1c(F)cccc1F)=N[C@@H](C)c1nc(=O)c(C)cn1-2 [Example 8, (5S)-8-chloro-7-(2,6-difluorophenyl)-2,5,9-trimethyl-5H-pyrimido[1,2-a][1,4]benzodiazepin-3-one]	115%	2.15	1240 nM	37.7 nM	32.7	1.51	37.7 nM	2 nM					
C[C@@H]1N=C(c2c(F)cccc2F)c2c(ccc(C(F)(F)F)c2Cl)-n2cc(CO)c(=O)nc21 [Example 29, (5S)-8-chloro-7-(2,6-difluorophenyl)-2-(hydroxymethyl)-5-methyl-9-(trifluoromethyl)-5H-pyrimido[1,2-a][1,4]benzodiazepin-3-one]					292.6	2.47			113 nM	13100 nM	44.6 nM	44.6 nM	11.2 nM
O=c1ccn2c(n1)CN=C(c1c(F)cccc1F)c1c-2ccc(Cl)c1Br [Example 17, 8-bromo-9-chloro-7-(2,6-difluorophenyl)-5H-pyrimido[1,2-a][1,4]benzodiazepin-3-one]	79%	1.79	507 nM	13.7 nM	36.9	1.57	13.7 nM	1 nM					
C[C@@H]1N=C(c2c(F)cccc2F)c2c(ccc(Br)c2Cl)-n2cc(Br)c(=O)nc21 [Example 16, (5S)-2,9-dibromo-8-chloro-7-(2,6-difluorophenyl)-5-methyl-5H-pyrimido[1,2-a][1,4]benzodiazepin-3-one]	71%	1.71	1570 nM	8.3 nM	188.0	2.27		1.6 nM					
O=c1nc2n(cc1Br)-c1ccc(Cl)c(Cl)c1C(c1c(F)cccc1F)=NC2 [Example 5, 2-bromo-8,9-dichloro-7-(2,6-difluorophenyl)-5H-pyrimido[1,2-a][1,4]benzodiazepin-3-one]	78%	1.78	2020 nM	10.6 nM	190.6	2.28	10.6 nM	1.4 nM					
